{
  "source": "paper PMC6881293",
  "about": "“Nanomolar-potency ‘co-potentiator’ therapy for cystic fibrosis caused by a defined subset of minimal function CFTR mutants” (Scientific Reports, 2019)",
  "key": {"[1]": {"molecular_target": "T1, R334W-CFTR (Homo sapiens, UniProt P13569, R334W)", "T1 construct": "expressed in transfected cells; host or cells: Fischer rat thyroid (FRT) cells; gift from Drs; Andras Rab and Jeong Hong (Emory University)", "T1 sequence (P13569 whole entry R334W)": "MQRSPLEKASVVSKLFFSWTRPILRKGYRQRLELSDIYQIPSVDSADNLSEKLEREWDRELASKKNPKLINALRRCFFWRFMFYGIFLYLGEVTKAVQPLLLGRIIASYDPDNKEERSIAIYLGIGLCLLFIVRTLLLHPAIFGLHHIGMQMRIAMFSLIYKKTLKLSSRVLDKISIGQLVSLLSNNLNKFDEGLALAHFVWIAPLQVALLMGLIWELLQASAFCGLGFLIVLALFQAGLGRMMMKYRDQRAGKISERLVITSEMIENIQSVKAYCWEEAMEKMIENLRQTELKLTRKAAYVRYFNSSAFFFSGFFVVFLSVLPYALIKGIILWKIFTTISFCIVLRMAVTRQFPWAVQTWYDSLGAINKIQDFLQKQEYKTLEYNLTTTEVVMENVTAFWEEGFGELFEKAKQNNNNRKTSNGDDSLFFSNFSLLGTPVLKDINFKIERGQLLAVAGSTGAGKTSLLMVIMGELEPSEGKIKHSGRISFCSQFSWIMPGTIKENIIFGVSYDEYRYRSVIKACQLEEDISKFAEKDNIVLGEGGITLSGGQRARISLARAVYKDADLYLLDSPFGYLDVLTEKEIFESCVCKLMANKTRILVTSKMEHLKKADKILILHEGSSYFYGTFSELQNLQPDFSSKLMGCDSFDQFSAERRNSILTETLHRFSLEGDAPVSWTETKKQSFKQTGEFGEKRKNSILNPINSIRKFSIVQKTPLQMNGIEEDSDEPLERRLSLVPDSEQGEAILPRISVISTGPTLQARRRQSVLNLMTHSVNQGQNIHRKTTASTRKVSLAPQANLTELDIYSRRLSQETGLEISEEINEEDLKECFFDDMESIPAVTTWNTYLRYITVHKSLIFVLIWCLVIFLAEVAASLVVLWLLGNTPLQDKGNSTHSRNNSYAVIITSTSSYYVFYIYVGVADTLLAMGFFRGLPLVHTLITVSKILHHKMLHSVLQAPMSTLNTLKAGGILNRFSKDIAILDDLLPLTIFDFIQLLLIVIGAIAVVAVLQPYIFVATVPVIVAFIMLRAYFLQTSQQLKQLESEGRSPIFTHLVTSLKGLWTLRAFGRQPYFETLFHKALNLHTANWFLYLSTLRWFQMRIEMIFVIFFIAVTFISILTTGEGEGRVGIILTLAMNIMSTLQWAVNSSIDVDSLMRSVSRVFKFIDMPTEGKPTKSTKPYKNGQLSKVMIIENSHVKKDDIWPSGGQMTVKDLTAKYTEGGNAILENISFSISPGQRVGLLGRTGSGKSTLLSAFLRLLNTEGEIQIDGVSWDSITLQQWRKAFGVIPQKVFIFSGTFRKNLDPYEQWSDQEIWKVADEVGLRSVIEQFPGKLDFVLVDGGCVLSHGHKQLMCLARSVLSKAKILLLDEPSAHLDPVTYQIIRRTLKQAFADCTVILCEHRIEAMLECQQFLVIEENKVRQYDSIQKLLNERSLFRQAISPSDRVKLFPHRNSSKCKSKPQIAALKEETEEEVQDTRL", "test": "Short-circuit current in FRT cells expressing R334W-CFTR", "assay_type": "cell-based", "settings": "20 μM forskolin, 5 µM VX-770, 20 µM ASP-11", "description": "(§1) As shown in Fig. 1C and summarized in Fig. 2, ASP-11 acted in synergy with VX-770 to increase chloride current in FRT cells expressing the NBD2 mutations I1234del- and Q1313X-CFTR by ~3–9-fold compared to VX-770. I1234del- and Q1313X-CFTR-expressing cells were also treated with VX-809 for 24 hours (to consider the effect of available CFTR therapeutics) with 2–3-fold greater currents observed.\n(§2) Figure 2 Summary of short-circuit current responses to modulators for CFTR mutants in transfected FRT cells. Responses to indicated CFTR mutants with 20 μM forskolin, 5 µM VX-770, 20 µM ASP-11 (with or without 3 µM VX-809 overnight). For reference, data shown for cells expressing wild type CFTR. Mean ± S.E.M., n = 3.\n(§3) Short-circuit current was measured on cells cultured on Snapwell clear permeable supports (Corning) as described[10],[11]. Hemichambers were connected to a DVC-1000 voltage clamp (World Precision Instruments Inc., Sarasota, FL) via Ag/AgCl electrodes and 3 M KCl agar bridges for recording of the short-circuit current. For human airway epithelial cells, symmetrical HCO3^−-buffered solutions (in mM: 120 NaCl, 5 KCl, 1 MgCl2, 1 CaCl2, 5 Hepes, 25 NaHCO3, 10 glucose, pH 7.4) for basolateral and apical side were used. […]"}, "[2]": {"molecular_target": "T2, V520F-CFTR (Homo sapiens, UniProt P13569, V520F)", "T2 construct": "expressed in transfected cells; host or cells: Fischer rat thyroid (FRT) cells; gift from Drs; Andras Rab and Jeong Hong (Emory University)", "T2 sequence (P13569 whole entry V520F)": "as the sequence (P13569 whole entry R334W) above, with W334R, V520F counted along it", "test": "Short-circuit current in FRT cells expressing V520F-CFTR", "assay_type": "cell-based", "settings": "20 μM forskolin, 5 µM VX-770, 20 µM ASP-11", "description": "as §1, §2, §3"}, "[3]": {"molecular_target": "T3, R560T-CFTR (Homo sapiens, UniProt P13569, R560T)", "T3 construct": "expressed in transfected cells; host or cells: Fischer rat thyroid (FRT) cells; gift from Drs; Andras Rab and Jeong Hong (Emory University)", "T3 sequence (P13569 whole entry R560T)": "as the sequence (P13569 whole entry R334W) above, with W334R, R560T counted along it", "test": "Short-circuit current in FRT cells expressing R560T-CFTR", "assay_type": "cell-based", "settings": "20 μM forskolin, 5 µM VX-770, 20 µM ASP-11", "description": "as §1, §2, §3"}, "[4]": {"molecular_target": "T4, W1282X-CFTR (Homo sapiens, UniProt P13569)", "T4 construct": "expressed in transfected cells", "T4 sequence (P13569 1-1281 limits assumed)": "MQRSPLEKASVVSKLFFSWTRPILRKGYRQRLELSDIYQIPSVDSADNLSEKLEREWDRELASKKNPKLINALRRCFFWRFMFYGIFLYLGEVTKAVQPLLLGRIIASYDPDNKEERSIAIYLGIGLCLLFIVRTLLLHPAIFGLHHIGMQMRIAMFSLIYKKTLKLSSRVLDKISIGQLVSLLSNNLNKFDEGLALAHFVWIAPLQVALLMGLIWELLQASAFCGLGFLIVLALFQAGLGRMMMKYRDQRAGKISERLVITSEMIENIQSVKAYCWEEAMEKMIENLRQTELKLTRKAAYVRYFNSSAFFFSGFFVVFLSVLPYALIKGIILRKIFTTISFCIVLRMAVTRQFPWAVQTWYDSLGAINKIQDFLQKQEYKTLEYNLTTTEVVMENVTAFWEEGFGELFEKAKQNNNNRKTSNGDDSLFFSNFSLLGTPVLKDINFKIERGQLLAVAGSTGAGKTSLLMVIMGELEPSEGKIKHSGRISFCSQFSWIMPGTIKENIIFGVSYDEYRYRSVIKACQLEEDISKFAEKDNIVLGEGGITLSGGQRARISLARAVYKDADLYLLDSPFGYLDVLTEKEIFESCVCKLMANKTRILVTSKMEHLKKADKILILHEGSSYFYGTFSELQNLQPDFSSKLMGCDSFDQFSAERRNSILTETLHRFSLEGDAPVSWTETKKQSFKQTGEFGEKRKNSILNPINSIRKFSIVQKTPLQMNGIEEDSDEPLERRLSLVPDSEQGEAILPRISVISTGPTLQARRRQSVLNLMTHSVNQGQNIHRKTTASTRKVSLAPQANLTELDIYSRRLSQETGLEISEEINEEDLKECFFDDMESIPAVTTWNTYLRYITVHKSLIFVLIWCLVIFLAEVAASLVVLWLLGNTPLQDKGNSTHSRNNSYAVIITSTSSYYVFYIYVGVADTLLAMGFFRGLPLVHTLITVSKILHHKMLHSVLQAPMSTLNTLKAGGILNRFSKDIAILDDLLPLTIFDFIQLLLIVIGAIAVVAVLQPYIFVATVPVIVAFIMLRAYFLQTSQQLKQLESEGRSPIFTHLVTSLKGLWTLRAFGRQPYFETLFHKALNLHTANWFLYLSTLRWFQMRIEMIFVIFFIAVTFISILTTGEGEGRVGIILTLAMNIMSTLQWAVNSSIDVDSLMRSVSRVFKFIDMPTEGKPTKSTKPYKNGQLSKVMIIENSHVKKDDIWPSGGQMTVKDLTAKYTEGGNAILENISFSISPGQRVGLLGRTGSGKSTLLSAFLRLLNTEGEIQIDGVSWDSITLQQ", "parameters": "method as in PMID 27895116, PMID 29903467", "settings": "transfected FRT cells expressing CFTR1281 (truncation product of W1282X-CFTR); cited from earlier work"}, "[5]": {"molecular_target": "T5, N1303K-CFTR (Homo sapiens, UniProt P13569, N1303K)", "T5 construct": "expressed in transfected cells", "T5 sequence (P13569 whole entry N1303K)": "as the sequence (P13569 whole entry R334W) above, with W334R, N1303K counted along it", "parameters": "method as in PMID 27895116, PMID 29903467", "settings": "transfected FRT cells expressing N1303K-CFTR; cited from earlier work"}, "[6]": {"molecular_target": "T4, W1282X-CFTR", "test": "Structure-activity testing of analogs in FRT cells expressing W1282X-CFTR", "assay_type": "cell-based", "description": "To establish structure-activity relationships, 240 commercially available piperidinepyridoindole analogs and 160 pyrazoloquinoline analogs were tested in FRT cells expressing W1282X-CFTR. In general, the methoxy substituent on the 4-position (R^3) on the pyridoindole ring increased potency (compare A01 vs A534). N-methylation on the pyridoindole ring abolished activity (compare A534 vs A600). For substituent R^1 on the piperidine ring, substituted benzyl gave greatest activity (A061 and A662). Other R^1 substituents, including sulfonamide (A145), alkyl (A764) and carbocyclic (A714), reduced activity. Changing the benzylic carbon from methylene (CH2) to ketone (C=O) abolished activity (A815, A350 and A956).\nFor R^3, pyridine (D003), benzyl (D035) and substituted methyl-pyrazole (D086) abolished activity. […] The D123 pyrazoloquinoline with R^3 substituted with thiophene-quinoline heterocycle gave the best potency."}, "[7]": {"molecular_target": "T5, N1303K-CFTR", "test": "Short-circuit current in gene-edited 16HBE14o- cells expressing N1303K-CFTR (16HBE-N1303Kge)", "assay_type": "cell-based", "settings": "16HBE-N1303Kge cells; 20 µM compound after 20 µM forskolin and 5 µM VX-770", "description": "To test the efficacy of new co-potentiators in human airway cell models, short-circuit current was measured in 16HBE14o- human airway epithelial cells in which the endogenous CFTR gene was edited to contain the N1303K mutation (16HBE-N1303Kge[21]) and in primary cultures of human bronchial epithelial cells from a N1303K homozygous CF subject. Addition of forskolin and then VX-770 to 16HBE-N1303Kge cells gave a limited response (Fig. 6A). Subsequent addition of CP-A061 or CP-D123 produced CFTRinh-172-inhibitable responses of ~10 μA/cm^2, ~6-fold greater that that produced by VX-770 alone. Increased short-circuit current was also found for these co-potentiators in the primary human bronchial epithelial cell cultures (Fig. 6B).\nFigure 6 N1303K-CFTR activity in human airway epithelial cell cultures. (A) Short-circuit current in gene-edited 16HBE14o- cells expressing N1303K-CFTR. Concentrations: 20 µM amiloride, 20 µM forskolin, 5 µM VX-770, 20 µM CP-A061 and CP-D123, and 10 µM CFTRinh-172. Representative original curves (left and center) and summary of changes in current (∆Isc) (right). Mean ± S.E.M., n = 3, *P < 0.05). (B) Short-circuit current in primary cultures of human bronchial epithelial cells from a homozygous N1303K-CFTR CF subject. […]\nShort-circuit current was measured on cells cultured on Snapwell clear permeable supports (Corning) as described[10],[11]. […]"}, "[8]": {"molecular_target": "T5, N1303K-CFTR", "parameters": "method as in PMID 30046002", "settings": "prior studies; cited from earlier work"}},
  "data": [
    {"smiles": "CCCCn1cc(S(=O)(=O)Nc2ccc(CC)cc2)c2cccnc21", "note": "[ASP-11]", "values": [
      {"measurement": "ASP-11 effect on short-circuit current", "setting": "[1]", "value": "absence of ASP-11 effect"},
      {"measurement": "ASP-11 effect on short-circuit current", "setting": "[2]", "value": "absence of ASP-11 effect"},
      {"measurement": "ASP-11 effect on short-circuit current", "setting": "[3]", "value": "absence of ASP-11 effect"},
      {"measurement": "increase in chloride current over that produced by a high concentration of VX-770", "setting": "[4]", "value": "~ 8 fold"},
      {"measurement": "increase in chloride current over that produced by a high concentration of VX-770", "setting": "[5]", "value": "~ 8 fold"}
    ]},
    {"smiles": "COc1ccc2[nH]c3c(c2c1)CCNC31CCN(Cc2ccc(F)cc2F)CC1", "note": "[Compound A061]", "values": [
      {"measurement": "Relative Vmax (%)", "setting": "[6]; Table 1, 100% Vmax corresponds to 20 μM ASP-11", "value": 100, "unit": "%"},
      {"measurement": "EC50", "setting": "[6]; Table 1, piperidine-pyridoindole analogs", "value": 2, "unit": "µM"},
      {"measurement": "CFTRinh-172-inhibitable short-circuit current response", "setting": "[7]", "value": "~ 10 μA/cm^2"},
      {"measurement": "response relative to that produced by VX-770 alone", "setting": "[7]", "value": "~ 6 fold"}
    ]},
    {"smiles": "CC(C)(C)c1cc(C(C)(C)C)c(NC(=O)c2c[nH]c3ccccc3c2=O)cc1O", "note": "[VX-770, ivacaftor]", "values": [
      {"measurement": "response of N1303K-CFTR to modulator", "setting": "[8]", "value": "not responsive"}
    ]}
  ]
}
